PMC7582602, “Beyond the Canonical Endocannabinoid System. A Screening of PPAR Ligands as FAAH Inhibitors” (International Journal of Molecular Sciences, 2020)
Like-named read-outs stand apart in the source and are kept apart here.

Tests used:
FAAH Human recombinant = target: T1, FAAH Human recombinant (Homo sapiens, UniProt O00519); experiment: FAAH inhibition assay (fluorometric, AMC-AA substrate); format: biochemical; details: for IC50: human recombinant FAAH, mean ± SEM, i: inactive; for inhibition at 100 µM: read-out: FAAH % inhibition @ 100 μM
T1 construct: purchased Cayman Chemical
T1 sequence (O00519 1-579): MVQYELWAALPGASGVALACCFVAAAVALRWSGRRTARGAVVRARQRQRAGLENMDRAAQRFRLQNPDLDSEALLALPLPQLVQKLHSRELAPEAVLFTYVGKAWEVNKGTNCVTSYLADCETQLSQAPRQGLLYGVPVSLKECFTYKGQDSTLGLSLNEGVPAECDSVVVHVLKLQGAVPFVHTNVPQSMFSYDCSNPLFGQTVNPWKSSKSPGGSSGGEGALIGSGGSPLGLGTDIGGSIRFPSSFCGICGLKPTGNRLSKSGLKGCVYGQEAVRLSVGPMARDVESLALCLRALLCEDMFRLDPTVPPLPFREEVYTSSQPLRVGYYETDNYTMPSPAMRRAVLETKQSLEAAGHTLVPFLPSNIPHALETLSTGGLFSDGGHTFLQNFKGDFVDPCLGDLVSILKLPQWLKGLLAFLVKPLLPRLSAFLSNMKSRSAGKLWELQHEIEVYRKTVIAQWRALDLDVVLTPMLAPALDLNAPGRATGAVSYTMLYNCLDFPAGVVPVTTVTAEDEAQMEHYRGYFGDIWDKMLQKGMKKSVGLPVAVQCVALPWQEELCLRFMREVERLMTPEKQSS
Protocol: Briefly, 96-well black flat-bottom microtiter NBS plates (COSTAR flat black) were utilized to perform the assays (in triplicate).
Control wells lacking the inhibitor and blank wells lacking both inhibitor and enzyme were used to calculate percent inhibition for each tested compound. IC50 values were calculated via GraphPad Prism 5.0 (GraphPad Software, La Jolla, CA, USA) and are reported as mean ± SEM of at least two independent measurements performed in triplicate.

FAAH = test system: FAAH; parameters: method as in PMID 23240907; details: literature value for carprofen; cited from earlier work
human PPARα [1] = target: T2, human PPARα (Homo sapiens, UniProt Q07869); details: previously reported compound; cited from earlier work
T2 sequence (Q07869 239-466 limits assumed): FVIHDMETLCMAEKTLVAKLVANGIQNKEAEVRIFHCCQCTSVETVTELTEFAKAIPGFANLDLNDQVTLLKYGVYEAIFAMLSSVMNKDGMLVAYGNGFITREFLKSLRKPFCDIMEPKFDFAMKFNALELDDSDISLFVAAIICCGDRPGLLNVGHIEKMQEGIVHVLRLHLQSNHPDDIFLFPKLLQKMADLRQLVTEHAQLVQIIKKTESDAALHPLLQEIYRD

human PPARγ [2] = target: T3, human PPARγ (Homo sapiens, UniProt P37231); details: previously reported compound; cited from earlier work
T3 sequence (P37231 238-503 limits assumed): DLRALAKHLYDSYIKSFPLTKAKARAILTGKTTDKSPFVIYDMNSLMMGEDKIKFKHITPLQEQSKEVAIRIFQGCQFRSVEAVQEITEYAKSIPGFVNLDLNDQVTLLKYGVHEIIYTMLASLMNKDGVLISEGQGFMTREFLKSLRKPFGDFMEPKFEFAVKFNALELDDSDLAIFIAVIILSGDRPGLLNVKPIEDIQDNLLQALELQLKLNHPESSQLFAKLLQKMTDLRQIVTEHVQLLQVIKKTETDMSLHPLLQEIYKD

human PPARγ [3] = target: T3, human PPARγ; experiment: GAL4-PPARγ-LBD transactivation (luciferase) assay in HepG2 cells; details: for Emax: HepG2, read-out: PPARγ Emax
human PPARα [4] = target: T2, human PPARα; experiment: GAL4-PPARα-LBD transactivation (luciferase) assay in HepG2 cells; details: for Emax: HepG2, read-out: PPARα Emax
LogD = format: physicochemical; details: called measured LogD values

Row | SMILES | IC50 (FAAH Human recombinant) | inhibition at 100 µM (FAAH Human recombinant) | PPARα Emax (human PPARα [1]) | PPARγ Emax (human PPARγ [2]) | further results
1 | O=C(O)C(Cc1ccccc1)Oc1ccc(/C=C/c2ccccc2)cc1 (centres unmarked) [Compound 18] | 24 ± 2.5 µM |  |  |  | 
2 | CC(C(=O)O)c1ccc2c(c1)[nH]c1ccc(Cl)cc12 (centres unmarked) [carprofen] |  |  |  |  | IC50 (FAAH): 79 ± 20 µM
3 | O=C(O)C(Cc1ccccc1)Oc1ccc(/C=C\c2ccccc2)cc1 (centres unmarked) [Compound 19] | > 100 µM | 30.5% |  |  | 
4 | O=C(/C=C/c1ccc(O)c(O)c1)O[C@H](Cc1ccc(O)c(O)c1)C(=O)O [Compound 4, Rosmarinic acid] | ~100 µM | 62% |  |  | activity on PPARγ (in words) (human PPARγ [3]): did not find any activity; activity on PPARα (in words) (human PPARα [4]): did not find any activity
5 | Cc1cccc(Nc2cc(Cl)nc(SCC(=O)O)n2)c1C [Compound 2, Wy 14,643, reference compound] | > 100 µM |  |  |  | activity on FAAH (in words) (FAAH Human recombinant): little to no activity
6 | Oc1ccc(/C=C/c2cc(O)cc(O)c2)cc1 [Compound 12, resveratrol] | 26.1 ± 11.4 µM |  |  |  | 
7 | O=C(Oc1ccc([N+](=O)[O-])cc1)N1CCN(Cc2cccc(Oc3ccccc3)c2)CC1 [JZL195, reference compound] | 0.019 ± 0.003 µM |  |  |  | 
8 | CCCCCCCN(CCc1ccc(OCC(=O)O)cc1)c1nc2ccccc2o1 [Compound 8] | 30.5 ± 12.6 µM |  | 87 ± 7% | 37 ± 11% | EC50 (human PPARα [1]): 120 ± 160 nM; EC50 (human PPARγ [2]): 0.83 ± 0.75 µM
9 | CCCc1c(OCCCOc2ccc(OCC(=O)O)cc2)ccc(C(C)=O)c1O [Compound 3, L165,041, reference compound] | > 100 µM | 40% |  |  | activity on FAAH (in words) (FAAH Human recombinant): little to no activity
10 | COc1ccc(C=CC(=O)N[C@@H](Cc2ccc(O)cc2)C(=O)O)cc1OC [Compound 35, (S)-2-(3-(3,4-dimethoxyphenyl)acrylamido)-3-(4-hydroxyphenyl)propanoic acid] |  |  |  |  | melting point: 105 to 108.5 °C

Further lines, with some results ahead:

Row | IC50 (FAAH Human recombinant) | inhibition at 100 µM (FAAH Human recombinant) | SMILES | PPARα Emax (human PPARα [1]) | PPARγ Emax (human PPARγ [2]) | further results
11 | > 100 µM | 35% | CCCCCCCN(CCc1ccc(O[C@H](C)C(=O)O)cc1)c1nc2ccccc2o1 [Compound 26] | 93 ± 6% | 59 ± 2% | 
12 | ~100 µM | 45.1% | CCCCCCCN(CCc1ccc(O[C@@H](C)C(=O)O)cc1)c1nc2ccccc2o1 [Compound 25] | 78 ± 4% | 32 ± 5% | 
13 | 12.6 ± 3.1 µM |  | O=C(C=Cc1ccc(O)c(O)c1)N[C@@H](Cc1ccccc1)C(=O)O [Compound 33] |  |  | melting point: 198 to 199 °C
14 | > 100 µM | 32.2% | CC(Oc1ccc(CCc2ccccc2)cc1)C(=O)O (racemic) [Compound 16] |  |  | melting point: 106 to 107 °C; EC50 (human PPARγ [3]): 24 ± 6 µM; Emax (human PPARγ [3]): 18 ± 7%; EC50 (human PPARα [4]): 17.6 ± 3 µM; Emax (human PPARα [4]): 116 ± 1%
15 | > 100 µM | 30% | CC(Oc1ccc(Cc2ccccc2)cc1)C(=O)O (racemic) [Compound 13, (R,S)-2-(4-benzyl)-phenoxypropanoic acid] |  |  | melting point: 102 to 104 °C; EC50 (human PPARα [4]): 4.6 ± 1.8 µM; Emax (human PPARα [4]): 116 ± 1%
16 | > 100 µM |  | CC(Oc1ccc(Cc2ccc(OCc3coc(-c4ccccc4)n3)cc2)cc1)C(=O)O (centres unmarked) [Compound 17] | 47 ± 13 | 26 ± 3 | 
17 | > 100 µM | 39.2% | O=C(O)C(Cc1ccccc1)Oc1ccc(NCc2ccccc2)cc1 (centres unmarked) [Compound 20] | 78 ± 4% | 27 ± 6% | 
18 | 40.2 ± 17.7 µM |  | O=C(O)COc1ccc(Cc2ccccc2)cc1 [Compound 5, 4-benzyl-phenoxyacetic acid] |  |  | melting point: 117 to 118 °C; EC50 (human PPARγ [3]): 33 ± 23 µM; Emax (human PPARγ [3]): 9 ± 6%; logD (LogD): 0.27; EC50 (human PPARα [4]): 24 ± 5 µM; Emax (human PPARα [4]): 34 ± 8%
19 | > 100 µM | 34% | O=C(Cc1ccccc1)c1ccc(O[C@@H](Cc2ccccc2)C(=O)O)cc1 [Compound 21] | 106 ± 1% | 40 ± 2% | EC50 (human PPARα [1]): 1800 ± 1000 nM; EC50 (human PPARγ [2]): 9.1 ± 0.9 µM
20 | ~100 µM | 63% | O=C(O)COc1ccc(CCc2ccccc2)cc1 [Compound 15, 4-phenethyl-phenoxyacetic acid] |  |  | melting point: 130 to 131 °C
21 | > 100 µM |  | O=C(/C=C/c1ccccc1)O[C@@H](Cc1ccccc1)C(=O)O [(S)-28] |  |  | Emax (human PPARγ [3]): 9 ± 6%; Emax (human PPARα [4]): 34 ± 8%
22 | > 100 µM |  | O=C(O)C(Cc1ccccc1)Oc1ccc(Cc2ccccc2)cc1 (centres unmarked) [Compound 14] | 115 ± 27% | 42 ± 1% | logD (LogD): 2.62; activity on FAAH (in words) (FAAH Human recombinant): completely inactive
